Laboratory results published in publication PMC7614683, “A small molecule PI3Kα activator for cardioprotection and neuroregeneration” (Nature, 2023).

Biological target: T1, full length p110α/p85α (Homo sapiens, UniProt P42336)
T1 construct: Full-length human p110α was expressed either in a complex with full-length human p85α (for HTS, biochemistry and HDX-MS); 6xHis tag followed by TEV protease site (N); host or cells: Spodoptera frugiperda Sf9, baculovirus
Assay: HDX-MS
Format: binding
Procedure: Sample preparation: HDX-MS experiments were carried out as described previously. […] In total, three biological replicates, i.e. three separate protein preparations, each with exchange experiments carried out in triplicate were conducted. Data presented in the manuscript is a single biological replicate. Data acquisition and analysis were as follows: Each sample was thawed and injected onto an M-Class Acquity UPLC with HDX Technology (Waters) kept at 0.1°C. Proteins were digested in-line using an Enzymate Pepsin Column (Waters, #186007233) at 15°C for 2 min at 200 μl/min. Peptic peptides were then eluted onto an Acquity UPLC BEH C18 Column (Waters, #186002346) equilibrated in Pepsin-A buffer (0.1% formic acid) and separated using a 5-35% gradient of Pepsin-B buffer (0.1% formic acid, 99% acetonitrile) over 7 min at a flowrate of 40 μl/min. Data were collected on a Waters Cyclic IMS, with an electrospray ionisation source, from 50-2000 m/z. Data were collected in the HDMS^E mode. A single pass of the cyclic IMS was conducted. A “blank” sample of protein dilution buffer with quench was run between samples, and carry-over of peptides was routinely monitored. Five replicates were used to identify non-deuterated peptides. Criteria used to include peptides in the HDX-MS dataset were: minimum intensity 5000, minimum sequence length 5, maximum sequence length 25, a minimum of 3 fragment ions, a minimum of 0.1 products per amino acid, a minimum score of 6.62, a maximum MH+ Error of 10 ppm, identification in at least two datasets with a retention time RSD of less than 10%. Data was analysed using Protein Lynx Global Server (Waters) and DynamX (Waters). All peptides were manually inspected for EX1 kinetics and sufficient quality of the peptide envelope. Data quality, experiment design, and reporting of data meets the criteria as determined by the HDX-MS community. Uptake files were created using Baryonyx. Data are available via ProteomeXchange with identifier PXD037721.

[1] = PK3CA_HUMAN peptide 334-341, time point 1 of 5
[2] = PK3CA_HUMAN peptide 334-341, time point 2 of 5
[3] = PK3CA_HUMAN peptide 334-341, time point 3 of 5
[4] = PK3CA_HUMAN peptide 334-341, time point 4 of 5
[5] = PK3CA_HUMAN peptide 334-341, time point 5 of 5
[6] = PK3CA_HUMAN peptide 342-356, time point 1 of 5
[7] = PK3CA_HUMAN peptide 342-356, time point 2 of 5
[8] = PK3CA_HUMAN peptide 342-356, time point 3 of 5
[9] = PK3CA_HUMAN peptide 342-356, time point 4 of 5
[10] = PK3CA_HUMAN peptide 342-356, time point 5 of 5
[11] = PK3CA_HUMAN peptide 356-368, time point 1 of 5
[12] = PK3CA_HUMAN peptide 356-368, time point 2 of 5
[13] = PK3CA_HUMAN peptide 356-368, time point 3 of 5
[14] = PK3CA_HUMAN peptide 356-368, time point 4 of 5
[15] = PK3CA_HUMAN peptide 356-368, time point 5 of 5
[16] = PK3CA_HUMAN peptide 369-380, time point 1 of 5
[17] = PK3CA_HUMAN peptide 369-380, time point 2 of 5
[18] = PK3CA_HUMAN peptide 369-380, time point 3 of 5
[19] = PK3CA_HUMAN peptide 369-380, time point 4 of 5
[20] = PK3CA_HUMAN peptide 369-380, time point 5 of 5
[21] = PK3CA_HUMAN peptide 371-380, time point 1 of 5
[22] = PK3CA_HUMAN peptide 371-380, time point 2 of 5
[23] = PK3CA_HUMAN peptide 371-380, time point 3 of 5
[24] = PK3CA_HUMAN peptide 371-380, time point 4 of 5
[25] = PK3CA_HUMAN peptide 371-380, time point 5 of 5

T1 sequence (P42336 whole entry): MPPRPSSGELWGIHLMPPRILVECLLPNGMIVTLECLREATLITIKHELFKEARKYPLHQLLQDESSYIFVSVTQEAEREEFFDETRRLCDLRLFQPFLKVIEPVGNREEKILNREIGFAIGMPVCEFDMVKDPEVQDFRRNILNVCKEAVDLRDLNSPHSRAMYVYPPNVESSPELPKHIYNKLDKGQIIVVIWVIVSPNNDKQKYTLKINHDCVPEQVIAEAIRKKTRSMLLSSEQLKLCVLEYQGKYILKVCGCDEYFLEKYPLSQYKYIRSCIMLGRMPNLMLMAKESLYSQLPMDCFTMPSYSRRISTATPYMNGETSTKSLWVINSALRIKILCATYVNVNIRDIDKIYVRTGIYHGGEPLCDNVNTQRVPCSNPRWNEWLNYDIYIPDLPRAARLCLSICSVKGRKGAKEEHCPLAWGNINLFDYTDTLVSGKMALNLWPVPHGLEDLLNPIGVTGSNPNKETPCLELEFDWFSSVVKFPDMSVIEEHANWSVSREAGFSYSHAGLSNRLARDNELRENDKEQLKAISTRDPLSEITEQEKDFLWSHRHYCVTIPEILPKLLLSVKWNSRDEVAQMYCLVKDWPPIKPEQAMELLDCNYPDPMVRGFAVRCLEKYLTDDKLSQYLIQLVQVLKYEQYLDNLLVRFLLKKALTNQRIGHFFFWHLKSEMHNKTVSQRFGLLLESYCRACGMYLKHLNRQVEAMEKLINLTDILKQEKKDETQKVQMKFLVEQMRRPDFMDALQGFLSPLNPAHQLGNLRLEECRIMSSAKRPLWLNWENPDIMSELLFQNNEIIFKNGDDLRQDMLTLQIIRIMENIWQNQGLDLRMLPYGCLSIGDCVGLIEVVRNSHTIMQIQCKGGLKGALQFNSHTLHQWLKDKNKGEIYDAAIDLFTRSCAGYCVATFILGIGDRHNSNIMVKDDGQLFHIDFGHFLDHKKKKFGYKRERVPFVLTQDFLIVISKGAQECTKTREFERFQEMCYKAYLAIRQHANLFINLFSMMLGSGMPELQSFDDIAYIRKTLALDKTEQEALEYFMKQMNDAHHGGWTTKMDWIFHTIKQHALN
T1 sequence (P27986 whole entry partner): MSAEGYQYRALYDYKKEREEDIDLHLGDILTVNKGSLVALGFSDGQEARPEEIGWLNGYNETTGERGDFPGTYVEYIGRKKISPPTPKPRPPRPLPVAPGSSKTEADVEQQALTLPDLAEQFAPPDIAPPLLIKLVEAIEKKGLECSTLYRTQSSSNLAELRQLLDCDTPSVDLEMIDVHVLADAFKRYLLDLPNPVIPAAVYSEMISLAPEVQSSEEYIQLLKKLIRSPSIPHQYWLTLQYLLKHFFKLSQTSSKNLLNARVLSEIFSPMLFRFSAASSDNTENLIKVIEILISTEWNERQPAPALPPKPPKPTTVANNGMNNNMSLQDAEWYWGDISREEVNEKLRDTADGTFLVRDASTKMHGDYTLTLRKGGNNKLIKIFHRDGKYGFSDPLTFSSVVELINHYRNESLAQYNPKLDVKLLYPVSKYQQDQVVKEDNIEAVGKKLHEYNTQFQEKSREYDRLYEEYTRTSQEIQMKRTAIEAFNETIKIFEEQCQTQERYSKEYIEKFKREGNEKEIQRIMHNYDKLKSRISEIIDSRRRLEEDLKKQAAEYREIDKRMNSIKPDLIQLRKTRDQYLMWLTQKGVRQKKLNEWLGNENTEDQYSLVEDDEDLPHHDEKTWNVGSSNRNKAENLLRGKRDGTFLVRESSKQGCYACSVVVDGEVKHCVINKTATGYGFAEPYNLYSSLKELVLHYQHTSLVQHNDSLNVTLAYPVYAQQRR

CCN1CCN(c2ccc(Nc3cc(Nc4cccc5c4N(C(C)=O)CC5)ccn3)cc2)CC1 [Compound 1938] was tested. Which “HDX difference (Da)” value (PK3CA_HUMAN peptide 326-333, time point 5 of 5) did it give?
The value was -0.29 Da.

What about the “HDX difference (%D)” value [1] of the same molecule?
The value was -1.6%.

What about the “HDX difference (Da)” value [1] of the same molecule?
The value was -0.11 Da.

And the “HDX difference (%D)” value [2]?
Its value is -0.186%.

What about the “HDX difference (Da)” value [2] of the same molecule?
Its value is -0.013 Da.

What about the “HDX difference (%D)” value [3] of the same molecule?
The value was -0.0541%.

What about the “HDX difference (Da)” value [3] of the same molecule?
Its value is -0.00379 Da.

And the “HDX difference (%D)” value [4]?
Its value is 0.367%.

What about the “HDX difference (Da)” value [4] of the same molecule?
The value was 0.0257 Da.

What about the “HDX difference (%D)” value [5] of the same molecule?
The value was 0.162%.

And the “HDX difference (Da)” value [5]?
The value was 0.0113 Da.

What about the “HDX difference (%D)” value [6] of the same molecule?
Its value is -1.7%.

What about the “HDX difference (Da)” value [6] of the same molecule?
Its value is -0.24 Da.

What about the “HDX difference (%D)” value [7] of the same molecule?
Its value is 0.845%.

What about the “HDX difference (Da)” value [7] of the same molecule?
Its value is 0.12 Da.

What about the “HDX difference (%D)” value [8] of the same molecule?
The value was 0.00161%.

And the “HDX difference (Da)” value [8]?
The value was 0.000225 Da.

And the “HDX difference (%D)” value [9]?
The value was 1.1%.

And the “HDX difference (Da)” value [9]?
Its value is 0.16 Da.

What about the “HDX difference (%D)” value [10] of the same molecule?
Its value is 0.6%.

What about the “HDX difference (Da)” value [10] of the same molecule?
Its value is 0.09 Da.

And the “HDX difference (%D)” value [11]?
Its value is -0.8%.

What about the “HDX difference (Da)” value [11] of the same molecule?
The value was -0.10 Da.

And the “HDX difference (%D)” value [12]?
The value was -1.0%.

And the “HDX difference (Da)” value [12]?
The value was -0.12 Da.

What about the “HDX difference (%D)” value [13] of the same molecule?
The value was 0.8%.

What about the “HDX difference (Da)” value [13] of the same molecule?
The value was 0.09 Da.

And the “HDX difference (%D)” value [14]?
The value was 0.0672%.

What about the “HDX difference (Da)” value [14] of the same molecule?
The value was 0.00807 Da.

What about the “HDX difference (%D)” value [15] of the same molecule?
The value was 0.6%.

What about the “HDX difference (Da)” value [15] of the same molecule?
The value was 0.0745 Da.

What about the “HDX difference (%D)” value [16] of the same molecule?
Its value is -2.7%.

And the “HDX difference (Da)” value [16]?
Its value is -0.30 Da.

What about the “HDX difference (%D)” value [17] of the same molecule?
The value was 1.2%.

And the “HDX difference (Da)” value [17]?
The value was 0.14 Da.

And the “HDX difference (%D)” value [18]?
The value was -1.1%.

What about the “HDX difference (Da)” value [18] of the same molecule?
The value was -0.12 Da.

What about the “HDX difference (%D)” value [19] of the same molecule?
The value was -0.8%.

And the “HDX difference (Da)” value [19]?
Its value is -0.08 Da.

And the “HDX difference (%D)” value [20]?
The value was 0.6%.

And the “HDX difference (Da)” value [20]?
The value was 0.07 Da.

And the “HDX difference (%D)” value [21]?
The value was -3.7%.

What about the “HDX difference (Da)” value [21] of the same molecule?
Its value is -0.33 Da.

What about the “HDX difference (%D)” value [22] of the same molecule?
The value was -0.454%.

What about the “HDX difference (Da)” value [22] of the same molecule?
Its value is -0.04 Da.

And the “HDX difference (%D)” value [23]?
The value was -1.7%.

And the “HDX difference (Da)” value [23]?
The value was -0.15 Da.

And the “HDX difference (%D)” value [24]?
The value was -2.6%.

And the “HDX difference (Da)” value [24]?
Its value is -0.23 Da.

And the “HDX difference (%D)” value [25]?
The value was 0.329%.

What about the “HDX difference (Da)” value [25] of the same molecule?
The value was 0.03 Da.

And the “HDX difference, percentage” value (PK3CA_HUMAN peptide 457-466, time column 1 of 5, deuterium exchange time 0.005)?
The value was -0.467%.

And the “HDX difference, percentage” value (PK3CA_HUMAN peptide 457-466, time column 2 of 5, deuterium exchange time 0.05)?
The value was -0.449%.

And the “HDX difference, percentage” value (PK3CA_HUMAN peptide 457-466, time column 3 of 5, deuterium exchange time 0.5)?
The value was 0.346%.

And the “HDX difference, percentage” value (PK3CA_HUMAN peptide 457-466, time column 4 of 5, deuterium exchange time 5)?
Its value is -0.9%.

What about the “HDX difference, percentage” value (PK3CA_HUMAN peptide 457-466, time column 5 of 5) of the same molecule?
The value was -1.0%.

What about the “HDX difference, percentage” value (PK3CA_HUMAN peptide 467-476, time column 1 of 5, deuterium exchange time 0.005) of the same molecule?
The value was -1.4%.

And the “HDX difference, percentage” value (PK3CA_HUMAN peptide 467-476, time column 2 of 5, deuterium exchange time 0.05)?
Its value is -0.5%.

What about the “HDX difference, percentage” value (PK3CA_HUMAN peptide 467-476, time column 3 of 5, deuterium exchange time 0.5) of the same molecule?
The value was -0.7%.

What about the “HDX difference, percentage” value (PK3CA_HUMAN peptide 467-476, time column 4 of 5, deuterium exchange time 5) of the same molecule?
Its value is -0.9%.

What about the “HDX difference, percentage” value (PK3CA_HUMAN peptide 467-476, time column 5 of 5) of the same molecule?
Its value is -0.552%.

And the “HDX difference, percentage” value (PK3CA_HUMAN peptide 477-486, time column 1 of 5, deuterium exchange time 0.005)?
The value was -1.6%.

And the “HDX difference, percentage” value (PK3CA_HUMAN peptide 477-486, time column 2 of 5, deuterium exchange time 0.05)?
Its value is 0.186%.

And the “HDX difference, percentage” value (PK3CA_HUMAN peptide 477-486, time column 3 of 5, deuterium exchange time 0.5)?
The value was 0.327%.

And the “HDX difference, percentage” value (PK3CA_HUMAN peptide 477-486, time column 4 of 5, deuterium exchange time 5)?
The value was -0.0919%.

What about the “HDX difference, percentage” value (PK3CA_HUMAN peptide 477-486, time column 5 of 5) of the same molecule?
Its value is 0.0363%.

What about the “HDX difference, percentage” value (PK3CA_HUMAN peptide 487-495, time column 1 of 5, deuterium exchange time 0.005) of the same molecule?
Its value is -0.747%.

And the “HDX difference, percentage” value (PK3CA_HUMAN peptide 487-495, time column 2 of 5, deuterium exchange time 0.05)?
Its value is 0.4%.

What about the “HDX difference, percentage” value (PK3CA_HUMAN peptide 487-495, time column 3 of 5, deuterium exchange time 0.5) of the same molecule?
Its value is 0.0115%.

And the “HDX difference, percentage” value (PK3CA_HUMAN peptide 487-495, time column 4 of 5, deuterium exchange time 5)?
Its value is -0.8%.

And the “HDX difference, percentage” value (PK3CA_HUMAN peptide 487-495, time column 5 of 5)?
The value was -0.2%.

What about the “HDX difference, percentage” value (PK3CA_HUMAN peptide 487-498, time column 1 of 5, deuterium exchange time 0.005) of the same molecule?
Its value is -0.239%.

What about the “HDX difference, percentage” value (PK3CA_HUMAN peptide 487-498, time column 2 of 5, deuterium exchange time 0.05) of the same molecule?
Its value is -0.449%.

What about the “HDX difference, percentage” value (PK3CA_HUMAN peptide 487-498, time column 3 of 5, deuterium exchange time 0.5) of the same molecule?
Its value is 0.176%.

What about the “HDX difference, percentage” value (PK3CA_HUMAN peptide 487-498, time column 4 of 5, deuterium exchange time 5) of the same molecule?
The value was -1.0%.
